Measured values taken from ChEMBL document CHEMBL1201862, “PubChem BioAssay data set” (2004).
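In this assay, cells in 96-well plates receive the compound at five concentrations for 48 hours. Endpoints are linearly interpolated between the surrounding concentrations. GI50 is the concentration that inhibits growth by half.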 Activity calls are given as the source filed them. Rule as the data show it: active = GI50 up to about 1.1 µM and inactive = higher.

Key:
Assay in all cases: inhibition of tumour cell growth, NCI panel, 48 h
[1] = system: SK-OV-3
[2] = system: CCRF-CEM
[3] = system: 786-0
[4] = system: NCI-H226
[5] = system: HOP-62
[6] = system: HT-29
[7] = system: HCC 2998
[8] = system: NCI-H460
[9] = system: SN12C
[10] = system: Malme-3M
[11] = system: HOP-92
[12] = system: SW-620
[13] = system: TK-10
[14] = system: HCT-15
[15] = system: SNB-75

Row | SMILES | GI50 [1] | GI50 [2] | GI50 [3] | GI50 [4] | GI50 [5] | GI50 [6] | GI50 [7] | GI50 [8] | GI50 [9] | GI50 [10] | GI50 [11] | GI50 [12] | GI50 [13] | GI50 [14] | GI50 [15]
1 | Cc1cccc(C)c1NC(=O)CCCC(=O)C1/C(=N/NC(=O)CC#N)CCC/C1=N\NC(=O)CC#N (stereo unspecified) | > 100 µM (inactive) | > 100 µM (inactive) | > 100 µM (inactive) | > 100 µM (inactive) | > 100 µM (inactive) | > 100 µM (inactive) | > 100 µM (inactive) | > 100 µM (inactive) | > 100 µM (inactive) | > 100 µM (inactive) | 48.8 µM (inactive) | > 100 µM (inactive) | > 100 µM (inactive) | > 100 µM | > 100 µM (inactive)
2 | O=C1CC23CC(=O)CC2(C1)c1ccccc1C3=O (stereo unspecified) | > 100 µM (inactive) | > 100 µM (inactive) | > 100 µM (inactive) | > 100 µM (inactive) | > 100 µM (inactive) | > 100 µM (inactive) | > 100 µM (inactive) | > 100 µM (inactive) | > 100 µM (inactive) | > 100 µM (inactive) |  | > 100 µM (inactive) | > 100 µM (inactive) |  | > 100 µM (inactive)
3 | CC(C)(C)OC1=C(OC(C)(C)C)C(O)(c2ccc(Cl)cc2)C1=O (stereo unspecified) | > 100 µM (inactive) | > 100 µM (inactive) | > 100 µM (inactive) |  |  | > 100 µM (inactive) | > 100 µM (inactive) | > 100 µM (inactive) | > 100 µM (inactive) | > 100 µM (inactive) |  | > 100 µM (inactive) | > 100 µM (inactive) | > 100 µM | 99.3 µM (inactive)
4 | O=C(NCCCN1CCN(CCCNC(=O)c2cccc3ccccc23)CC1)c1cccc2ccccc12 | 23 µM (inactive) | > 100 µM (inactive) | 44.1 µM (inactive) | > 100 µM (inactive) | 30.8 µM (inactive) | 41.2 µM (inactive) | 35.1 µM (inactive) | 93.1 µM (inactive) | > 100 µM (inactive) | 57.4 µM (inactive) | 0.107 µM (active) | > 100 µM (inactive) | 65.3 µM (inactive) | > 100 µM | 20.9 µM (inactive)
5 | CN(C)CCn1c2ccccc2c2nc3cc4ccccc4cc3nc21 | 5.75 µM (inactive) | 2.88 µM (inactive) | 3.23 µM (inactive) | 14 µM (inactive) | 3.07 µM (inactive) | 0.643 µM (active) | 5.69 µM (inactive) | 0.796 µM (active) | 4.61 µM (inactive) | 10 µM (inactive) |  | 3.48 µM (inactive) | 10.5 µM (inactive) | 4.81 µM | 
6 | Cc1cc2c3ccccc3n(C)c2c2c1C(=O)c1ccccc1C2=O | 22.2 µM (inactive) | 5.18 µM (inactive) | 16.5 µM (inactive) | 10.8 µM (inactive) | 20.4 µM (inactive) | 24.9 µM (inactive) | 18.3 µM (inactive) |  | 19.2 µM (inactive) | 18.2 µM (inactive) | 13.5 µM (inactive) | 25 µM (inactive) | 32.5 µM (inactive) |  | 29.2 µM (inactive)
7 | CCCCC/C=C1\CCC(CN(C)C)C1=O (stereo unspecified) | 15 µM (inactive) | 1.56 µM (inactive) | 2.71 µM (inactive) | 15.5 µM (inactive) | 17.7 µM (inactive) | 28.2 µM (inactive) | 16.9 µM (inactive) | 31.5 µM (inactive) | 14.7 µM (inactive) | 14.6 µM (inactive) | 11.5 µM (inactive) | 3.76 µM (inactive) | > 23.4 µM (inactive) | 3.17 µM | 16.2 µM (inactive)
8 | CC#Cc1c(C#CC)c(OC)c2c(c1OC)C(=O)c1ccccc1C2=O | 34.9 µM (inactive) | > 100 µM (inactive) | 23.3 µM (inactive) |  | 17.3 µM (inactive) | > 100 µM (inactive) | > 100 µM (inactive) | > 100 µM (inactive) | > 100 µM (inactive) | > 100 µM (inactive) |  | > 100 µM (inactive) | 41.8 µM (inactive) | 61.7 µM | 
9 | NNC(=S)N/N=C(/C(=O)Nc1cc(Cl)ccc1Cl)C1C(=O)Nc2ccccc2[S+]1[O-] (stereo unspecified) | > 100 µM (inactive) | > 100 µM (inactive) | > 100 µM (inactive) | > 100 µM (inactive) | > 100 µM (inactive) | > 100 µM (inactive) | > 100 µM (inactive) | > 100 µM (inactive) | > 100 µM (inactive) | > 100 µM (inactive) | > 100 µM (inactive) | > 100 µM (inactive) | > 100 µM (inactive) | > 100 µM | > 100 µM (inactive)
10 | CCCCCCCc1cc(OC(=O)c2c(C)cc(OC)cc2O)cc(O)c1C(=O)O | 24.5 µM (inactive) | 24.7 µM (inactive) | 19 µM (inactive) |  | 18.5 µM (inactive) | 32.5 µM (inactive) | 20.3 µM (inactive) | 19.3 µM (inactive) | 26.6 µM (inactive) | 19.8 µM (inactive) | 26 µM (inactive) | 26.2 µM (inactive) | 28.7 µM (inactive) |  | 19 µM (inactive)
11 | Cc1c(CCl)c(=O)oc2c(C)c3occ(CCl)c(=O)c3cc12 | > 100 µM (inactive) | 3.18 µM (inactive) | > 100 µM (inactive) | 23.9 µM (inactive) | > 100 µM (inactive) |  | > 100 µM (inactive) | > 100 µM (inactive) | 23.4 µM (inactive) | > 100 µM (inactive) |  | > 100 µM (inactive) | > 100 µM (inactive) | 25 µM | 17.2 µM (inactive)
12 | CCN1CCC(O)(c2ccc(OC)cc2)C(C(=O)c2ccc(OC)cc2)C1 (stereo unspecified) | > 100 µM (inactive) |  | 13.3 µM (inactive) | > 100 µM (inactive) | > 100 µM (inactive) | 22 µM (inactive) | 19.4 µM (inactive) | 24 µM (inactive) | 20 µM (inactive) |  |  | 10.8 µM (inactive) | 3.28 µM (inactive) | 20.3 µM | 16.4 µM (inactive)
13 | C[C@H]1CCC2C(CN3CCCCC3)C(=O)OC2[C@]2(C)C(=O)CC(N3CCCCC3)C12O (stereo partly specified) | 28.6 µM (inactive) | 2.34 µM (inactive) | 4.54 µM (inactive) | 0.083 µM (active) |  | 3.9 µM (inactive) | 5.87 µM (inactive) | 12.8 µM (inactive) | 3.75 µM (inactive) | 9.44 µM (inactive) | 2.68 µM (inactive) | 3.64 µM (inactive) | 16.6 µM (inactive) |  | 11.3 µM (inactive)
14 | C=C1CC(c2ccc(O)c(OC)c2)Oc2c(OC)cccc21 (stereo unspecified) | > 100 µM (inactive) | 23.8 µM (inactive) | 58.9 µM (inactive) | > 100 µM (inactive) | 85.3 µM (inactive) | 55 µM (inactive) | > 100 µM (inactive) | 35.1 µM (inactive) | 34.4 µM (inactive) |  | 14.4 µM (inactive) | 34 µM (inactive) | 99.3 µM (inactive) | 34 µM | 39.2 µM (inactive)
15 | CCOC(=O)Cc1csc(Nc2ccc(OCC)cc2)n1 |  |  | > 100 µM (inactive) | > 100 µM (inactive) | > 100 µM (inactive) | > 100 µM (inactive) | > 100 µM (inactive) | > 100 µM (inactive) | > 100 µM (inactive) | > 100 µM (inactive) | 47.4 µM (inactive) | > 100 µM (inactive) | > 100 µM (inactive) | > 100 µM | 40.4 µM (inactive)
